Patent publication US20260356819A1, “OXOISOINDOLINYL-SUBSTITUTED […] DERIVATIVE AND USE THEREOF” (GLUETACS THERAPEUTICS (SHANGHAI) CO., LTD., priority 2023, published 2026)

Experiments:
Format in all cases: cell-based
Conditions in all cases: compounds at 50 nM and 500 nM
CK1α = target: T1, CK1α (Homo sapiens, UniProt P48729+Q96SW2); experiment: Western blot degradation of CK1α in hPBMCs (24 h)
T1 construct: The supernatant was aspirated as the extracted total cell protein; endogenous in cells; host or cells: human peripheral blood mononuclear cells (hPBMCs)
T1 sequence (P48729 whole entry): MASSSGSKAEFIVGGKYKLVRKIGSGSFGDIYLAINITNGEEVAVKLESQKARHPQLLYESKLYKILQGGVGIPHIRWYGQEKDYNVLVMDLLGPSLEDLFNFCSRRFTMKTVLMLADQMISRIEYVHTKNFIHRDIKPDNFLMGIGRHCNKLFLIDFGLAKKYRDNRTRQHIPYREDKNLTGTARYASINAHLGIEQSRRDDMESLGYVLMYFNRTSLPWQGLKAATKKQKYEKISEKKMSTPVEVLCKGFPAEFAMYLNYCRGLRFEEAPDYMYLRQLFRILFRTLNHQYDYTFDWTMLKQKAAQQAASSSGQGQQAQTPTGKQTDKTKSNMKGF
T1 sequence (Q96SW2 whole entry): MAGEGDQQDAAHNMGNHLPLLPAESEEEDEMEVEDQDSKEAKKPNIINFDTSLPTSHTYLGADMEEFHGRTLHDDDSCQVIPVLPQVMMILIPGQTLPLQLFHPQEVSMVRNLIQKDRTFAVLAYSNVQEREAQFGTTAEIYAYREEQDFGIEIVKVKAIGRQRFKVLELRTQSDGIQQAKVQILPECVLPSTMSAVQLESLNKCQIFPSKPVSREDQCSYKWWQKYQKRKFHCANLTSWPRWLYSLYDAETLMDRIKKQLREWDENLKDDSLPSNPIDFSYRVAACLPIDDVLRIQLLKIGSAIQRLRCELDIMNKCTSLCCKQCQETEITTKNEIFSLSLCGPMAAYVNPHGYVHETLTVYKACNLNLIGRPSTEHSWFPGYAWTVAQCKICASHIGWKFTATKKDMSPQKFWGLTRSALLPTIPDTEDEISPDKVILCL
T1 sequence (Q16531 whole entry partner): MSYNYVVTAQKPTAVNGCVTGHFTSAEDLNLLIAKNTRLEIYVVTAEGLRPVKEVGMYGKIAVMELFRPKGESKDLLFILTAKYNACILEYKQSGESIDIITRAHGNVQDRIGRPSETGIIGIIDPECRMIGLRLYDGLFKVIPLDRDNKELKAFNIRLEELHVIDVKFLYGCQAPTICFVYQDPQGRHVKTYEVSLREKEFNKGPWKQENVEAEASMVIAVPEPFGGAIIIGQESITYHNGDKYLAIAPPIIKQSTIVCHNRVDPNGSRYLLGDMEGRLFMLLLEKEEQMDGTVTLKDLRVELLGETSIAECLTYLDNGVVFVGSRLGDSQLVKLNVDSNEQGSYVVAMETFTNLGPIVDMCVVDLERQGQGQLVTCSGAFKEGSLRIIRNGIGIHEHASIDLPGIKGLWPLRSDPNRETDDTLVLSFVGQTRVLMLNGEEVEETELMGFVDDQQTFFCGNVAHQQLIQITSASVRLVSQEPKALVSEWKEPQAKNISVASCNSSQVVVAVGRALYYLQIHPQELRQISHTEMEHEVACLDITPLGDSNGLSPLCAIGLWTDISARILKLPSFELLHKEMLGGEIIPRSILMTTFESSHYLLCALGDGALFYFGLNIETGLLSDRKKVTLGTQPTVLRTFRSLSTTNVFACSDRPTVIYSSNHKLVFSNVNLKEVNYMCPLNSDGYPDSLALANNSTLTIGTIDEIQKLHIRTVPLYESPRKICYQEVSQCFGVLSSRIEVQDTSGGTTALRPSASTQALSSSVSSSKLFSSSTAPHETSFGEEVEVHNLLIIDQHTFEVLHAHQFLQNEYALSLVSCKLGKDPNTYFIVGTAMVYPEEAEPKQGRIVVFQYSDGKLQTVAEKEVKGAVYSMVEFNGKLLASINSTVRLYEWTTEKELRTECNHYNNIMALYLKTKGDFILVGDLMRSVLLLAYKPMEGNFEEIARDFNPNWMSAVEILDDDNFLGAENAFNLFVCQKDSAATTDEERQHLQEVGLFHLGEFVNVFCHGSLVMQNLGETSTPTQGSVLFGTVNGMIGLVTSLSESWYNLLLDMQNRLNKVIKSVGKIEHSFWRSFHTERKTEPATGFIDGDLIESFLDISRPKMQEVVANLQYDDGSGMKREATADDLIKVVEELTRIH
How it was run: (§1)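 Read-out is Western blot band grayscale, divided by internal control band and normalised to give percent target protein remaining; degradation rate is 1 minus that value. Cells were human PBMCs exposed to compound at 50 nM and 500 nM for 24 hours.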

GSPT1 = target: T2, GSPT1 (Homo sapiens, UniProt P15170+Q96SW2); experiment: Western blot degradation of GSPT1 in hPBMCs (24 h)
T2 construct: The supernatant was aspirated as the extracted total cell protein; endogenous in cells; host or cells: human peripheral blood mononuclear cells (hPBMCs)
T2 sequence (P15170 whole entry): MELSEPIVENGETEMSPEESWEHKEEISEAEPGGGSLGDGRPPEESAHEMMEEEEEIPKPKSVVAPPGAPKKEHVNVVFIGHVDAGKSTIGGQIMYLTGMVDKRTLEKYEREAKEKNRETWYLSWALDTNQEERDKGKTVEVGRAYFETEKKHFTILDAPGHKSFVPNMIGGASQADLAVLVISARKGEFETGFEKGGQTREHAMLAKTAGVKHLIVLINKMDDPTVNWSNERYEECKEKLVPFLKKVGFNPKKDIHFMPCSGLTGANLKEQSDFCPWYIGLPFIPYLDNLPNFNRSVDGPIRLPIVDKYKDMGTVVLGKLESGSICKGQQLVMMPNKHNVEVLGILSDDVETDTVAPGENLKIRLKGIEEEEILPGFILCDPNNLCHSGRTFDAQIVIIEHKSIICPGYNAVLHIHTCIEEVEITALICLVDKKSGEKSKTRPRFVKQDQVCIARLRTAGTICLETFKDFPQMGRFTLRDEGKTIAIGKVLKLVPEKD
T2 sequence (Q96SW2 whole entry): as the sequence (Q96SW2 whole entry) above
T2 sequence (Q16531 whole entry partner): as the sequence (Q16531 whole entry partner) above
How it was run: as §1

IKZF1 = target: T3, IKZF1 (Homo sapiens, UniProt Q13422+Q96SW2); experiment: Western blot degradation of IKZF1 in hPBMCs (24 h)
T3 construct: The supernatant was aspirated as the extracted total cell protein; endogenous in cells; host or cells: human peripheral blood mononuclear cells (hPBMCs)
T3 sequence (Q13422 whole entry): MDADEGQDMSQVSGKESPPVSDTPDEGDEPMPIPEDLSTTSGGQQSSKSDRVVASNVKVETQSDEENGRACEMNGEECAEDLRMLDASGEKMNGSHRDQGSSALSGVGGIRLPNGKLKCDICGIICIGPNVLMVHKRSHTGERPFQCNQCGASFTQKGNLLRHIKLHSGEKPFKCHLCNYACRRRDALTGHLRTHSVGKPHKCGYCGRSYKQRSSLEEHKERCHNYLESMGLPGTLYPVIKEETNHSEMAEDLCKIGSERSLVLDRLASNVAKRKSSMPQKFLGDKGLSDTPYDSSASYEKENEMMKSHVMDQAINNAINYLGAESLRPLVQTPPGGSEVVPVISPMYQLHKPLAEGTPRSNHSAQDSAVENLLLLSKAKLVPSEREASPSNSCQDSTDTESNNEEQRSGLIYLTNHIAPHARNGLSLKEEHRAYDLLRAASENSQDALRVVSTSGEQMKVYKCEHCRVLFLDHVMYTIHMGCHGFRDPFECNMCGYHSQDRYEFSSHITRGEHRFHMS
T3 sequence (Q96SW2 whole entry): as the sequence (Q96SW2 whole entry) above
T3 sequence (Q16531 whole entry partner): as the sequence (Q16531 whole entry partner) above
How it was run: as §1

IKZF2 = target: T4, IKZF2 (Homo sapiens, UniProt Q96SW2+Q9UKS7); experiment: Western blot degradation of IKZF2 in hPBMCs (24 h)
T4 construct: The supernatant was aspirated as the extracted total cell protein; endogenous in cells; host or cells: human peripheral blood mononuclear cells (hPBMCs)
How it was run: as §1

IKZF3 = target: T5, IKZF3 (Homo sapiens, UniProt Q96SW2+Q9UKT9); experiment: Western blot degradation of IKZF3 in hPBMCs (24 h)
T5 construct: The supernatant was aspirated as the extracted total cell protein; endogenous in cells; host or cells: human peripheral blood mononuclear cells (hPBMCs)
T5 sequence (Q9UKT9 whole entry): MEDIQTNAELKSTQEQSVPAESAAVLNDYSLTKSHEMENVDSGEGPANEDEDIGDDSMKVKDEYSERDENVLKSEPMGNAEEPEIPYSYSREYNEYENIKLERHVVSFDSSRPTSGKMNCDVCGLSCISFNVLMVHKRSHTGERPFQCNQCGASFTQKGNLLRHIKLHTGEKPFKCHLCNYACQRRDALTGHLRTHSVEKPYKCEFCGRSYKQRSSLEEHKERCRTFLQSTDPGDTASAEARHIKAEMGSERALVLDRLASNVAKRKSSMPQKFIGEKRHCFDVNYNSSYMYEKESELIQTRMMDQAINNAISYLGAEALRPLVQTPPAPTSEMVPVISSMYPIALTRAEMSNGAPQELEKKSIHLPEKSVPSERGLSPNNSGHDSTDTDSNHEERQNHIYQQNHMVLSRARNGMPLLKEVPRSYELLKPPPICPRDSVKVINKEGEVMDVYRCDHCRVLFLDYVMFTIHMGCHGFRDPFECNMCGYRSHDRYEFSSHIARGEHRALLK
T5 sequence (Q96SW2 whole entry): as the sequence (Q96SW2 whole entry) above
T5 sequence (Q16531 whole entry partner): as the sequence (Q16531 whole entry partner) above
How it was run: as §1

WEE1 = target: T6, WEE1 (Homo sapiens, UniProt P30291+Q96SW2); experiment: Western blot degradation of WEE1 in hPBMCs (24 h)
T6 construct: The supernatant was aspirated as the extracted total cell protein; endogenous in cells; host or cells: human peripheral blood mononuclear cells (hPBMCs)
T6 sequence (P30291 whole entry): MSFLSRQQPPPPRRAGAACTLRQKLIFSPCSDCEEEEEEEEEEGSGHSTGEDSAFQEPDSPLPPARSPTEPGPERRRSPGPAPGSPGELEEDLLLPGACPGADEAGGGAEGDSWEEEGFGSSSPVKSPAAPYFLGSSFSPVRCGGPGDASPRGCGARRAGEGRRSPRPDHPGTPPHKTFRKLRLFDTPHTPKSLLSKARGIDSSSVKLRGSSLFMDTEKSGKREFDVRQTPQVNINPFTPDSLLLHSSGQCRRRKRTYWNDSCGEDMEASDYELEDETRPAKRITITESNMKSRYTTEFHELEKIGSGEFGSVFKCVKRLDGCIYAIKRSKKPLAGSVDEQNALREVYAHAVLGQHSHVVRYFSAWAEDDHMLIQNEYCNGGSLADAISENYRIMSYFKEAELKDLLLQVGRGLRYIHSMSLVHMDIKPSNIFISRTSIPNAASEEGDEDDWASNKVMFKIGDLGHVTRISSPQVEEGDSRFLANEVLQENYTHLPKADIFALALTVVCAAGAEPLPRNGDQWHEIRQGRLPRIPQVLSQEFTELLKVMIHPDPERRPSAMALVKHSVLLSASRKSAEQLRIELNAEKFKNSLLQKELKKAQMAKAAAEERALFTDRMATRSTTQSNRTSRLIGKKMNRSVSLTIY
T6 sequence (Q96SW2 whole entry): as the sequence (Q96SW2 whole entry) above
T6 sequence (Q16531 whole entry partner): as the sequence (Q16531 whole entry partner) above
How it was run: as §1

Row | SMILES | CK1α substrate protein remaining % (CK1α) | GSPT1 substrate protein remaining % (GSPT1) | IKZF1 substrate protein remaining % (IKZF1) | IKZF2 substrate protein remaining % (IKZF2) | IKZF3 substrate protein remaining % (IKZF3) | WEE1 substrate protein remaining % (WEE1)
1 | Cc1nc(N2CCN(Cc3ccc4c(c3)CN(N3CCC(=O)NC3=O)C4=O)CC2)c2c3c(sc2n1)CCCC3 [GT-08068, 1-(5-((4-(2-methyl-5,6,7,8-tetrahydrobenzo[4,5]thieno[2,3-d]pyrimidin-4-yl)piperazin-1-yl)methyl)-1-oxoisoindolin-2-yl)dihydropyrimidine-2,4(1H,3H)-dione] | A (0% ≤ substrate protein remaining % ≤80%) | B (80%< substrate protein remaining % ≤100%) | B (80%< substrate protein remaining % ≤100%) | A (0% ≤ substrate protein remaining % ≤80%) | B (80%< substrate protein remaining % ≤100%) | B (80%< substrate protein remaining % ≤100%)
2 | O=C1CCN(N2Cc3cc(CN4CCN(c5ncnc6sc7c(c56)CCCC7)CC4)ccc3C2=O)C(=O)N1 [GT-08077, 1-(1-oxo-5-((4-(5,6,7,8-tetrahydrobenzo[4,5]thieno[2,3-d]pyrimidin-4-yl)piperazin-1-yl)methyl)isoindolin-2-yl)dihydropyrimidine-2,4(1H,3H)-dione] | A (0% ≤ substrate protein remaining % ≤80%) | A (0% ≤ substrate protein remaining % ≤80%) | B (80%< substrate protein remaining % ≤100%) | B (80%< substrate protein remaining % ≤100%) | B (80%< substrate protein remaining % ≤100%) | B (80%< substrate protein remaining % ≤100%)
3 | O=C1CCN(N2Cc3cc(CN4CCN(c5ncnc6sc7c(c56)CCC7)CC4)ccc3C2=O)C(=O)N1 [GT-08079, 1-(5-((4-(6,7-dihydro-5H-cyclopenta[4,5]thieno[2,3-d]pyrimidin-4-yl)piperazin-1-yl)methyl)-1-oxoisoindolin-2-yl)dihydropyrimidine-2,4(1H,3H)-dione] | A (0% ≤ substrate protein remaining % ≤80%) | A (0% ≤ substrate protein remaining % ≤80%) | B (80%< substrate protein remaining % ≤100%) | B (80%< substrate protein remaining % ≤100%) | B (80%< substrate protein remaining % ≤100%) | A (0% ≤ substrate protein remaining % ≤80%)
4 | Cc1nc(N2CCN(Cc3ccc4c(c3)CN(N3CCC(=O)NC3=O)C4=O)CC2)c2c3c(sc2n1)CCC3 [GT-08080, 1-(5-((4-(2-methyl-6,7-dihydro-5H-cyclopenta[4,5]thieno[2,3-d]pyrimidin-4-yl)piperazin-1-yl)methyl)-1-oxoisoindolin-2-yl)dihydropyrimidine-2,4(1H,3H)-dione] | A (0% ≤ substrate protein remaining % ≤80%) | A (0% ≤ substrate protein remaining % ≤80%) | B (80%< substrate protein remaining % ≤100%) | B (80%< substrate protein remaining % ≤100%) | B (80%< substrate protein remaining % ≤100%) | A (0% ≤ substrate protein remaining % ≤80%)
5 | O=C1CCN(N2Cc3cc(CN4CCN(c5ncc6ccsc6n5)CC4)ccc3C2=O)C(=O)N1 [GT-08081, 1-(1-oxo-5-((4-(thieno[2,3-d]pyrimidin-2-yl)piperazin-1-yl)methyl)isoindolin-2-yl)dihydropyrimidine-2,4(1H,3H)-dione] | A (0% ≤ substrate protein remaining % ≤80%) | A (0% ≤ substrate protein remaining % ≤80%) | B (80%< substrate protein remaining % ≤100%) | B (80%< substrate protein remaining % ≤100%) | B (80%< substrate protein remaining % ≤100%) | A (0% ≤ substrate protein remaining % ≤80%)
6 | O=C1CCN(N2Cc3cc(CN4CCC(c5ncnc6sccc56)CC4)ccc3C2=O)C(=O)N1 [GT-08082, 1-(1-oxo-5-((4-(thieno[2,3-d]pyrimidin-4-yl)piperidin-1-yl)methyl)isoindolin-2-yl)dihydropyrimidine-2,4(1H,3H)-dione] | A (0% ≤ substrate protein remaining % ≤80%) | A (0% ≤ substrate protein remaining % ≤80%) | B (80%< substrate protein remaining % ≤100%) | B (80%< substrate protein remaining % ≤100%) | B (80%< substrate protein remaining % ≤100%) | A (0% ≤ substrate protein remaining % ≤80%)
7 | Cc1cc2c(C3CCN(Cc4ccc5c(c4)CN(N4CCC(=O)NC4=O)C5=O)CC3)ncnc2s1 [GT-08083, 1-(5-((4-(6-methylthieno[2,3-d]pyrimidin-4-yl)piperidin-1-yl)methyl)-1-oxoisoindolin-2-yl)dihydropyrimidine-2,4(1H,3H)-dione] | A (0% ≤ substrate protein remaining % ≤80%) | A (0% ≤ substrate protein remaining % ≤80%) | B (80%< substrate protein remaining % ≤100%) | B (80%< substrate protein remaining % ≤100%) | B (80%< substrate protein remaining % ≤100%) | B (80%< substrate protein remaining % ≤100%)
8 | Cc1sc2ncnc(C3CCN(Cc4ccc5c(c4)CN(N4CCC(=O)NC4=O)C5=O)CC3)c2c1C [GT-08084, 1-(5-((4-(5,6-dimethylthieno[2,3-d]pyrimidin-4-yl)piperidin-1-yl)methyl)-1-oxoisoindolin-2-yl)dihydropyrimidine-2,4(1H,3H)-dione] | A (0% ≤ substrate protein remaining % ≤80%) | A (0% ≤ substrate protein remaining % ≤80%) | B (80%< substrate protein remaining % ≤100%) | B (80%< substrate protein remaining % ≤100%) | B (80%< substrate protein remaining % ≤100%) | B (80%< substrate protein remaining % ≤100%)
9 | O=C1CCN(N2Cc3cc(CN4CCC(c5ncnc6sc(-c7ccccc7)cc56)CC4)ccc3C2=O)C(=O)N1 [GT-08085, 1-(1-oxo-5-((4-(6-phenylthieno[2,3-d]pyrimidin-4-yl)piperidin-1-yl)methyl)isoindolin-2-yl)dihydropyrimidine-2,4(1H,3H)-dione] | A (0% ≤ substrate protein remaining % ≤80%) | A (0% ≤ substrate protein remaining % ≤80%) | B (80%< substrate protein remaining % ≤100%) | B (80%< substrate protein remaining % ≤100%) | B (80%< substrate protein remaining % ≤100%) | B (80%< substrate protein remaining % ≤100%)
10 | Cc1nc(C2CCN(Cc3ccc4c(c3)CN(N3CCC(=O)NC3=O)C4=O)CC2)c2ccsc2n1 [GT-08088, 1-(5-((4-(2-methylthieno[2,3-d]pyrimidin-4-yl)piperidin-1-yl)methyl)-1-oxoisoindolin-2-yl)dihydropyrimidine-2,4(1H,3H)-dione] | A (0% ≤ substrate protein remaining % ≤80%) | A (0% ≤ substrate protein remaining % ≤80%) | B (80%< substrate protein remaining % ≤100%) | B (80%< substrate protein remaining % ≤100%) | B (80%< substrate protein remaining % ≤100%) | A (0% ≤ substrate protein remaining % ≤80%)
11 | Cc1nc(C2CCN(Cc3ccc4c(c3)CN(N3CCC(=O)NC3=O)C4=O)CC2)c2c3c(sc2n1)CCCC3 [GT-08089, 1-(5-((4-(2-methyl-5,6,7,8-tetrahydrobenzo[4,5]thieno[2,3-d]pyrimidin-4-yl)piperidin-1-yl)methyl)-1-oxoisoindolin-2-yl)dihydropyrimidine-2,4(1H,3H)-dione] | A (0% ≤ substrate protein remaining % ≤80%) | A (0% ≤ substrate protein remaining % ≤80%) | B (80%< substrate protein remaining % ≤100%) | B (80%< substrate protein remaining % ≤100%) | B (80%< substrate protein remaining % ≤100%) | A (0% ≤ substrate protein remaining % ≤80%)
